In US4963569A, “L-654,040, antibacterial agent” (Merck & Co., Inc., priority 1989, dated 1990):
Entries after “also recorded” stand apart in the source; their conditions may differ.

Assays:
Solubility in water = assay type: physicochemical; details: solutions in water for dosing
[1] = system: Pasteurella multocida (4678); experiment: In vivo efficacy in infected mice
[2] = system: Bordetella bronchiseptica (3771); experiment: In vivo efficacy in infected mice
[3] = system: Pasteurella multocida (4678); experiment: Combined therapy with erythromycin in infected mice; details: L-654,040 combined with erythromycin, intraperitoneal
Staph. aureus 2865 = experiment: Agar dilution MIC, antagonist-free medium (Table II); details: Staphylococcus aureus 2865, agar dilution
E. coli DC2 4353 = experiment: as above; details: E. coli permeability mutant
[4] = 160 mg/kg×2 intraperitoneal, 0 and 6 hours after infection

What does the source list for `C[C@H](CNC(=O)[C@H]1N=C(c2cccc(O)c2O)O[C@@H]1C)C(=O)N[C@@H]1CCCN(O)C1=O` [L-654,040, 2-(2,3-dihydroxyphenyl)-4,5-dihydro-N-[3-[(1-hydroxy-2-oxo-3(R)-piperidinyl)amino]-2(R)-methyl-3-oxopropyl]-5R-methyl-4S-oxazolecarboxamide]?
solubility (in words) (Solubility in water): limited solubility; statistical significance of prolongation of survival ([1]; 160 mg/kg×2 intraperitoneal): statistically significant (0.025<p<0.05); survival time [1, 4]: prolongation of survival time was observed; survival time (summary) ([1]; intraperitoneal): did prolong the survival time; also recorded: increases survival time; statistical significance of prolonged survival (summary) ([1]; intraperitoneal, two Pasteurella tests): statistically significant at one level in two Pasteurella tests; survival time [2, 4]: prolongation of survival time was observed; survival time (summary) ([2]; intraperitoneal): did prolong the survival time; effectiveness of combined therapy vs erythromycin alone [3]: slightly more effective than erythromycin alone; synergism with erythromycin [3]: not to a degree considered to be synergistic; sensitivity of strain (Staph. aureus 2865): sensitive; sensitivity of strain (E. coli DC2 4353; agar dilution): sensitive; relative activity, acetyl derivative vs parent compound (E. coli DC2 4353; from MIC): equal activity
